Reference: patent US20240009179A1, “METHODS OF TREATING CYSTIC FIBROSIS USING WITH-NO-LYSINE (WNK) KINASE PATHWAY INHIBITORS” (UNIVERSITY OF IOWA RESEARCH FOUNDATION, priority 2022, published 2024)

Key:
[1] = tested on: primary cultures of differentiated CF airway epithelia; assay: pHASL measurement (SNARF-1-dextran) in primary CF airway epithelia; format: cell-based, human
Excerpt: (§1) Cell culture. Primary cultures of differentiated airway epithelia were obtained without passage from multiple human donors as previously reported (37). Briefly, proximal bronchi were dissected, cut into small pieces, and enzymatically digested. Epithelial cells were isolated and seeded onto collagen-coated inserts (Costar, 3470; Falcon, 353180). Epithelia were differentiated at the air liquid interface for 3 weeks or more prior to assay. During the course of this study, new CF lung donors became scarce, partly due to more individuals taking highly-active CFTR modulators. To manage this situation, epithelial cells from previous CF donors cryopreserved at PO were thawed and differentiated. Whenever feasible, studies followed a paired design so that epithelia from the same donor were assayed under control and treatment conditions.
(§2) pHASL measurement. pHASL was measured using a fluorescent ratiometric pH indicator, SNARF-1, conjugated to 70 kD dextran (Thermo Fisher Scientific). SNARF-1-dextran was delivered as a powder to the apical side and allowed to distribute into ASL for 1 hour. Imaging was performed on a laser-scanning confocal microscope (Zeiss LSM 880). SNARF-1 was excited at 514 nm, and emissions at 580 nm and 640 nm were recorded. The ratio of fluorescence intensities (580/640) was obtained to calculate pH values using calibration curves constructed from colorless standard pH solutions. The microscope chamber housing epithelia maintained a humidified environment at 37° C. 5% CO2 was added to the chamber environment whenever the basolateral side was immersed in a HCO3^− containing buffer solution, but removed when a HCO3^−-free (HEPES) buffer solution was used.

[2] = tested on: primary cultures of non-CF epithelia; assay: pHASL measurement (SNARF-1-dextran) in primary non-CF airway epithelia; format: cell-based, human; details: WNK463 10 μM, 2 hours, 25 mM HCO3− and 5% CO2
Excerpt: as §1
pHASL measurement. pHASL was measured using a fluorescent ratiometric pH indicator, SNARF-1, conjugated to 70 kD dextran (Thermo Fisher Scientific). SNARF-1-dextran was delivered as a powder to the apical side and allowed to distribute into ASL for 1 hour. […] SNARF-1 was excited at 514 nm, and emissions at 580 nm and 640 nm were recorded. The ratio of fluorescence intensities (580/640) was obtained to calculate pH values using calibration curves constructed from colorless standard pH solutions. […]

primary CF epithelia [3] = assay: ASL viscosity measurement (FRAP); format: cell-based, human; details: WNK463 10 μM, 2 hours
Protocol: ASL viscosity measurement. ASL viscosity was measured using the fluorescence recovery after photobleaching (FRAP) method as previously reported (12). Briefly, powdered FITC-dextran (70 kD, Sigma) was delivered to the apical side of airway epithelia, and allowed to equilibrate for 2 hours. Epithelia were moved to a humidified chamber on the Zeiss LSM 880 confocal microscope. The chamber maintained a temperature of 37° C. and an atmosphere of 5% CO2. After baseline imaging, a small region of interest was photobleached. Time series fluorescence recovery images were collected until maximal recovery was reached. For each epithelium, 4-5 curves from different locations were obtained and averaged. The time constant (T) was calculated from the fluorescence recovery curves using regression, and expressed as ASL value normalized to saline (τASL/τsaline).

primary CF epithelia [4] = assay: Liquid absorption assay; format: cell-based, human; details: WNK463 10 μM, 4 hours
Protocol: Liquid absorption assay. Liquid absorption was measured using a previously reported method (40). Briefly, airway epithelia were transferred to 500 μl of fresh basolateral solution containing either vehicle or 10 μM WNK463. The apical side was suctioned dry and 30 μl of Krebs buffer solution was introduced. Of note, the apical solution had the same ionic composition, osmolality, and pH as the basolateral solution. After 4 hours, the apical liquid was collected with micropipettes (Drummond Microcaps #1-000-1000) and the height of the liquid column was recorded. Volume of liquid was calculated as the product of height and micropipette cross-sectional area. The difference between the original and 4-hour liquid volumes was used to calculate the rate of absorption (μl·cm^−2·h^−1).

primary CF epithelia [5] = assay: Ciliary beat frequency measurement; format: cell-based, human; details: WNK463 10 μM, 2 hours
Protocol: Ciliary beat frequency measurement. Phase contrast videos of ciliary motion were obtained using the Zeiss Axio Observer microscope at 50 frames per second at room temperature. A total of 256 frames (5.1 second videos) were obtained for each field. A minimum of five random fields per culture were selected. Whole field gaussian mean ciliary beat frequencies (CBF) were analyzed using the Sisson-Ammons video analysis software (SAVA; Ammons Engineering, Mt. Morris, MI) (41).

S. aureus = S. aureus killing assay (ASL antimicrobial activity, bacteria-coated grids); format: cell-based; details: primary CF epithelia; WNK463 10 μM, 2 hours
Protocol: S. aureus killing assay. ASL antimicrobial activity was assessed using bacteria-coated grids. Preparation, imaging, and quantification were performed as previously described (13). Briefly, S. aureus isolate SA-CL37 was grown to log-phase, labeled with biotin, and conjugated to streptavidin-coated gold electron microscopy grids. The grids were placed on the apical side of airway epithelia in direct contact with ASL. After incubating for 15 minutes in humidified, 5% CO2 chambers at 37° C., the grids were retrieved, rinsed with PBS, and immersed in SYTO9 and propidium iodide to determine bacterial viability (Live/Dead Bacterial Viability Assay, Invitrogen). The grids were washed, fixed with 4% paraformaldehyde, and imaged on the Olympus Fluoview FV 3000 confocal microscope. Images were analyzed for numbers of live and dead bacteria using the ImageJ software. For each grid, three separate regions were imaged. Two grids were assessed per epithelium and the results averaged to obtain % S. aureus killing.

CFTR = assay: Ussing chamber, response to CFTRinh-172 in non-CF epithelia; format: cell-based, human; details: WNK463 10 μM
Protocol: (§3) Electrophysiologic studies. Airway epithelia were mounted in modified Ussing chambers (Physiologic Instruments) and bathed in symmetric Krebs buffer solution. The standard Krebs buffer contained (in mM): 118.9 NaCl, 25 NaHCO3, 2.4 K2HPO4, 0.6 KH2PO4, 1.2 MgCl2, 1.2 CaCl2), and 5 dextrose at 37° C., adjusted to pH 7.4 in the presence of 5% CO2. The HCO3^−-free solution contained (in mM): 135 NaCl, 2.4 K2HPO4, 0.6 KH2PO4, 1.2 MgCl2, 1.2 CaCl2), 5 HEPES, and 5 dextrose at 37° C., adjusted to pH 7.4 in nominally C02^−free environment. The Cl^−-free solution contained (in mM): 118.9 Na gluconate, 25 NaHCO3, 2.4 K2HPO4, 0.6 KH2PO4, 5 Ca gluconate, 1 Mg gluconate, 5 dextrose, at 37° C. and adjusted to pH 7.4 in the presence of 5% C02. Epithelia were voltage clamped, followed by recording of the short-circuit current (ISC) and transepithelial conductance (Gt). Exposure to either vehicle (DMSO) or WNK463 was continued during recording. The following agents were added apically (in μM): 100 amiloride, 20 uridine triphosphate (UTP), 100 4,4′-diisothiocyano-2,2′-stilbenedisulfonic acid (DIDS), 10 forskolin, and 10 CFTRinh-172. In some experiments, 100 μM bumetanide was also added to the serosal chambers.
WNK463 reduces electrogenic Cl^− secretion. CFTR is the main route for anion exit across the apical membrane of airway epithelia. Whether WNK inhibition alters CFTR activity in airway epithelia is not well-established. To test, we exposed non-CF epithelia to WNK463 for 2 hours, and assayed in Ussing chambers containing symmetric Krebs solution (118 mM Cl^− and 25 mM HCO3^−, gassed with 5% CO2). After clamping transepithelial voltage, we recorded ISC and Gt, and elicited responses to selective channel inhibitors or activators (FIGS. 5A and 5B). We added amiloride followed by DIDS to abolish ENaC-mediated Na^+ absorption and Ca^2+-activated Cl^− channel (CaCC)-mediated anion secretion, respectively. Next, we added forskolin to increase cellular cAMP and thereby phosphorylate and activate CFTR channels. We concluded with CFTRinh-172, an inhibitor of CFTR. We assessed the response to CFTRinh-172 and used it to estimate CFTR channel activity. WNK463 reduced ΔISC-CFTR by ˜ 50% (FIG. 5C).

CaCC = assay: Ussing chamber, response to apical DIDS in CF epithelia; format: cell-based, human; details: WNK463 10 μM, 2 hours, after amiloride and UTP
Protocol: as §3
CF epithelia lack functional CFTR channels, but express CaCC. […] Next, we added DIDS, a non-specific CaCC inhibitor, and recorded the change in ISC and Gt.

NKCC1 [6] = assay: Ussing chamber, bumetanide-sensitive ISC in non-CF epithelia; format: cell-based, human; details: WNK463 10 μM, 2 hours, amiloride, forskolin, then basolateral bumetanide
Protocol: as §3
(§4) Reducing basolateral Cl^−-entry increases CF pHASL. […] To estimate the contribution of NKCC1, we added basolateral bumetanide, and measured ΔISC. […]

NKCC1 [7] = assay: Ussing chamber, bumetanide-sensitive ISC in CF epithelia; format: cell-based, human; details: WNK463 10 μM, 2 hours, amiloride, UTP, then basolateral bumetanide
Protocol: as §3, §4

[8] = tested on: TNFα/IL-17-treated CF epithelia; assay: pHASL measurement in TNFα/IL-17-treated CF epithelia; format: cell-based, human; details: CF epithelia treated with TNFα 10 ng/ml and IL-17 20 ng/ml for 48 hours, 2 hours
Protocol: To assess cytokine-induced responses, epithelia were treated with a combination of 10 ng/ml TNFα (R&D Systems) and 20 ng/ml IL-17 (R&D Systems). Both cytokines were added to the basolateral media for 48 hours prior to assessments. All studies were approved by the University of Iowa Institutional Review Board.
as §2

[9] = rat model of hypertension; cited from earlier work
airway epithelia = details: previous studies in airway epithelia; cited from earlier work
[10] = 2 hours, symmetric Krebs solution with Cl− and HCO3−

What does the source list for CC(C)(C)NC(=O)c1cncn1C1CCN(c2ccc(-c3nnc(C(F)(F)F)o3)cn2)CC1 [WNK463]?
pHASL ([1]; CF epithelia, WNK463 10 μM, 2 hours, in the absence of basolateral Cl−): failed to alkalinize; pHASL ([1]; primary CF epithelia, WNK463 10 μM, 2 hours, 25 mM HCO3− and 5% CO2): increased; pHASL, time course ([1]; primary CF epithelia, continued exposure up to 24 hours versus 2 hours): did not further alkalinize; pHASL response ([1]; primary CF epithelia, nominally HCO3−/CO2-free environment (HEPES), WNK463 10 μM): disappeared; pHASL [2]: increased; ASL viscosity (τASL/τsaline) (primary CF epithelia [3]): decreased; rate of apical liquid absorption (primary CF epithelia [4]): did not alter; ciliary beat frequency (primary CF epithelia [5]): increased; ASL-mediated S. aureus killing (S. aureus): increased; ΔISC-CFTR (CFTR; Cl−-free solution): remained unchanged; reduction of ΔISC-CFTR (CFTR; [10]): ~50%; ΔGt-CFTR (CFTR; [10]): remained unchanged; ΔISC-CFTR (CFTR; symmetric HCO3−-free solution): reduced; DIDS-sensitive ΔGt (CaCC): slightly increased; DIDS-sensitive ΔISC (CaCC): decreased; bumetanide-sensitive ISC (NKCC1 [6]): reduced; bumetanide-sensitive ISC (NKCC1 [7]): reduced; pHASL ([8]; WNK463 10 μM): further increased; adverse effects [9]: adverse effects

What does the source list for CCCCNc1cc(C(=O)O)cc(S(N)(=O)=O)c1Oc1ccccc1 [bumetanide]?
pHASL ([1]; CF epithelia, 2 hours after exposure to basolateral bumetanide): increased; pHASL ([8]; bumetanide 100 μM): further alkalinized; intracellular [Cl−] (airway epithelia): decreases

Which pHASL ([1]; primary CF epithelia, rafoxanide applied for 2 hours) does the source give for O=C(Nc1ccc(Oc2ccc(Cl)cc2)c(Cl)c1)c1cc(I)cc(I)c1O [rafoxanide, Rafoxanide] here?
The pHASL was “increased”.
